“Also recorded” adds a separate entry of the source.
Tested on: cerebral cortex of F1 C57BL/6N mice
Assay: Microarray expression profiling of F1 cerebral cortex after prenatal exposure to MDMA
[1] = F1 female, prenatal MDMA 20 mg/kg/day vs vehicle
[2] = F1 male, prenatal MDMA 20 mg/kg/day vs vehicle
[3] = common to F1 females and males, cerebral cortex, compared with control group, hydrochloride

CNC(C)Cc1ccc2c(c1)OCO2 (racemic) [MDMA]
differentially expressed genes after prenatal exposure to MDMA (female group) (F1 female cerebral cortex at 11 weeks, dams 20 mg/kg/day p.o. GD 6 to PND 21, vs vehicle, Welch's T-test P<0.05, 1.5 fold change cut-off): 1,784 genes | genes under-expressed in the female cerebral cortex [1]: 399 genes | genes up-regulated (over-expressed) in the female cerebral cortex [1]: 1,385 genes | differentially expressed genes after prenatal exposure to MDMA (male group) (F1 male cerebral cortex at 11 weeks, dams 20 mg/kg/day p.o. GD 6 to PND 21, vs vehicle, Welch's T-test P<0.05, 1.5 fold change cut-off): 804 genes | genes under-expressed in the male cerebral cortex [2]: 469 genes | genes up-regulated in the male cerebral cortex [2]: 335 genes | common genes selected from the differentially expressed genes of females and males (common to 1,784 genes of females and 804 genes of males): 90 genes | Expression change of the 1st to 36th genes of the 90 common genes [3]: reduced; also recorded: down- | Expression change of the 37th to 90th genes of the 90 common genes [3]: up- | effect on transcriptomic configuration of the cerebral cortex among offspring (maternal ingestion during pregnancy and lactation, F1 generation, hydrochloride): considerably affected; also recorded: this change was permanent
